Reference: PubChem BioAssay AID330 (DTP/NCI, 2004)
“And” between values parts separate entries of the source, which are not always exact repeats. Equal values may be shown once. Toxic doses and inconclusive results are not listed. The calls were made as follows: active = survival T/C of 150% or more; inactive = T/C below 125% in these data.

System: P388 leukemia ip, CD2F1 mice, survival T/C
Assay: NCI In Vivo Anticancer Drug Screen. Data for tumor model P388 Leukemia (intraperitoneal) in CD2F1 (CDF1) mice
Conditions: endpoint: median survival time, higher = longer survival
How it was run: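 Mice carrying the transplanted tumor received test compound or vehicle. Survival was recorded in each group, and the value is the treated-group measurement divided by that of the vehicle-treated control group.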

[1] = dose: 100.0 mg/kg/injection, schedule: Q01DX001 (ip), vehicle: saline with Tween-80
[2] = dose: 200.0 mg/kg/injection, schedule: Q01DX001 (ip), vehicle: saline with Tween-80
[3] = dose: 400.0 mg/kg/injection, schedule: Q01DX001 (ip), vehicle: saline with Tween-80
[4] = dose: 100.0 mg/kg/injection, schedule: Q01DX009 (ip), vehicle: saline with Tween-80
[5] = dose: 400.0 mg/kg/injection, schedule: Q01DX009 (ip), vehicle: saline with Tween-80
[6] = dose: 60.0 mg/kg/injection, schedule: Q01DX005 (ip), vehicle: Klucel (hydroxypropylcellulose) (HPC)
[7] = dose: 120.0 mg/kg/injection, schedule: Q01DX005 (ip), vehicle: Klucel (hydroxypropylcellulose) (HPC)
[8] = dose: 200.0 mg/kg/injection, schedule: Q01DX009 (ip), vehicle: saline with Tween-80
[9] = dose: 50.0 mg/kg/injection, schedule: Q01DX009 (ip), vehicle: Klucel (hydroxypropylcellulose) (HPC)
[10] = dose: 100.0 mg/kg/injection, schedule: Q01DX009 (ip), vehicle: Klucel (hydroxypropylcellulose) (HPC)
[11] = dose: 200.0 mg/kg/injection, schedule: Q01DX009 (ip), vehicle: Klucel (hydroxypropylcellulose) (HPC)
[12] = dose: 60.0 mg/kg/injection, schedule: Q01DX005 (ip), vehicle: saline
[13] = dose: 240.0 mg/kg/injection, schedule: Q01DX005 (ip), vehicle: saline
[14] = dose: 50.0 mg/kg/injection, schedule: Q01DX005 (ip), vehicle: saline with Tween-80
[15] = dose: 100.0 mg/kg/injection, schedule: Q01DX005 (ip), vehicle: saline with Tween-80
[16] = dose: 200.0 mg/kg/injection, schedule: Q01DX005 (ip), vehicle: saline with Tween-80

Measured: T/C

NC(=O)C#CC(N)=O
inactive: dose: 0.11 mg/kg/injection, schedule: Q01DX009 (ip), vehicle: Klucel (hydroxypropylcellulose) (HPC) 100 % of control and 103 % of control | dose: 0.22 mg/kg/injection, schedule: Q01DX009 (ip), vehicle: Klucel (hydroxypropylcellulose) (HPC) 100 % of control and 119 % of control | dose: 0.45 mg/kg/injection, schedule: Q01DX009 (ip), vehicle: Klucel (hydroxypropylcellulose) (HPC) 103 % of control and 119 % of control | dose: 0.9 mg/kg/injection, schedule: Q01DX009 (ip), vehicle: Klucel (hydroxypropylcellulose) (HPC) 100 % of control and 114 % of control

FC(F)(F)C(F)(F)C(F)(F)c1nnc(-c2ccc(Cl)cc2Cl)o1
inactive: [1] 95 % of control | [2] 100 % of control | [3] 96 % of control

Cc1[nH]c2cc3c(cc2c(=O)c1Cc1c(C)[nH]c2cc4c(cc2c1=O)CCCC4)CCCC3
inactive: dose: 100.0 mg/kg/injection, schedule: Q01DX001 (ip), vehicle: Klucel (hydroxypropylcellulose) (HPC) 87 % of control | dose: 200.0 mg/kg/injection, schedule: Q01DX001 (ip), vehicle: Klucel (hydroxypropylcellulose) (HPC) 88 % of control | dose: 400.0 mg/kg/injection, schedule: Q01DX001 (ip), vehicle: Klucel (hydroxypropylcellulose) (HPC) 87 % of control

O=C(C(Br)C(Br)c1ccccc1)N1CCOCC1 (configuration not stated)
inactive: [4] 118 % of control | dose: 178.0 mg/kg/injection, schedule: Q01DX009 (ip), vehicle: saline with Tween-80 113 % of control | dose: 266.0 mg/kg/injection, schedule: Q01DX009 (ip), vehicle: saline with Tween-80 119 % of control | [5] 121 % of control

COc1cccc2c1C(=O)c1c(O)c3c(c(O)c1C2=O)CC(O)(/C(C)=N/NC(=O)CCCCCCC(=O)N/N=C(\C)C1(O)Cc2c(O)c4c(c(O)c2C(OC2CC(N)C(O)C(C)O2)C1)C(=O)c1c(OC)cccc1C4=O)CC3OC1CC(N)C(O)C(C)O1 (configuration not stated)
active: dose: 2.0 mg/kg/injection, schedule: Q01DX009 (ip), vehicle: water 162 % of control | dose: 4.0 mg/kg/injection, schedule: Q01DX009 (ip), vehicle: water 212 % of control | dose: 8.0 mg/kg/injection, schedule: Q01DX009 (ip), vehicle: water 245 % of control
inactive: dose: 16.0 mg/kg/injection, schedule: Q01DX009 (ip), vehicle: water 87 % of control

O=Cc1cc2c(Cl)nccc2o1
inactive: [6] 105 % of control | [7] 102 % of control | dose: 240.0 mg/kg/injection, schedule: Q01DX005 (ip), vehicle: Klucel (hydroxypropylcellulose) (HPC) 104 % of control

CCC/C=C1\OC(=O)c2ccccc21
inactive: dose: 12.5 mg/kg/injection, schedule: Q01DX009 (ip), vehicle: saline with Tween-80 104 % of control | dose: 25.0 mg/kg/injection, schedule: Q01DX009 (ip), vehicle: saline with Tween-80 100 % of control | dose: 50.0 mg/kg/injection, schedule: Q01DX009 (ip), vehicle: saline with Tween-80 104 % of control | [4] 100 % of control | [8] 114 % of control

COP(=O)(OC)C1(C(C)(C)C)CO1 (configuration not stated)
inactive: [9] 99 % of control | [10] 88 % of control | [11] 94 % of control

COc1cc2c(cc1OC)C1CC(=O)C(CCCCCCC3CN4CCc5cc(OC)c(OC)cc5C4CC3=O)CN1CC2 (configuration not stated)
inactive: [9] 91 % of control | [10] 92 % of control | [11] 99 % of control

N[C@H]1c2ccsc2C(=O)[C@H]1O
active: [12] 153 % of control | [13] 155 % of control

O=C1NC(=O)C2(OC3c4ccccc4C=NN3C3=C2C(=O)CCC3)C(=O)N1 (configuration not stated)
inactive: [6] 98 % of control | [7] 97 % of control

Cc1ccc2nc(NC(=O)N(CCCl)N=O)sc2c1
active: dose: 400.0 mg/kg/injection, schedule: Q04DX003 (ip), vehicle: saline with Tween-80 168 % of control

CC(O)c1nc2c3ccccc3ccc2n1C (configuration not stated)
inactive: [14] 96 % of control | [15] 93 % of control | [16] 92 % of control

CC(C)CCCCCCCCCCCCC(=O)NCC(=O)O
inactive: dose: 12.5 mg/kg/injection, schedule: Q01DX009 (ip), vehicle: distilled water + Tween-80 96 % of control | dose: 25.0 mg/kg/injection, schedule: Q01DX009 (ip), vehicle: distilled water + Tween-80 96 % of control | dose: 50.0 mg/kg/injection, schedule: Q01DX009 (ip), vehicle: distilled water + Tween-80 86 % of control | dose: 100.0 mg/kg/injection, schedule: Q01DX009 (ip), vehicle: distilled water + Tween-80 86 % of control | dose: 200.0 mg/kg/injection, schedule: Q01DX009 (ip), vehicle: distilled water + Tween-80 87 % of control

COC(=O)C(O)c1ccc2c(c1)OCO2 (configuration not stated)
inactive: [4] 90 % of control | [8] 90 % of control | [5] 104 % of control

CCCCCC1(CCCCCCCC(=O)OCC)OCCO1
inactive: dose: 100.0 mg/kg/injection, schedule: Q04DX003 (ip), vehicle: Klucel (hydroxypropylcellulose) (HPC) 97 % of control | dose: 200.0 mg/kg/injection, schedule: Q04DX003 (ip), vehicle: Klucel (hydroxypropylcellulose) (HPC) 103 % of control | dose: 400.0 mg/kg/injection, schedule: Q04DX003 (ip), vehicle: Klucel (hydroxypropylcellulose) (HPC) 97 % of control

NC1=NC(=O)C(N=O)C(=O)N1 (configuration not stated)
inactive: dose: 100.0 mg/kg/injection, schedule: Q04DX002 (ip), vehicle: saline with Tween-80 99 % of control | dose: 200.0 mg/kg/injection, schedule: Q04DX002 (ip), vehicle: saline with Tween-80 107 % of control | dose: 400.0 mg/kg/injection, schedule: Q04DX002 (ip), vehicle: saline with Tween-80 106 % of control

CC1=NN(C(=O)c2ccccc2)C(=O)C1N=Nc1ccc(Cl)cc1 (configuration not stated)
inactive: [1] 94 % of control | [2] 94 % of control | [3] 88 % of control

CCC1(CC)C(=O)NC(=O)[N]([Sn]([CH2]C)([CH2]C)[N]2C(=O)NC(=O)C(CC)(CC)C2=O)C1=O
inactive: dose: 1.56 mg/kg/injection, schedule: Q01DX005 (ip), vehicle: Klucel (hydroxypropylcellulose) (HPC) 90 % of control | dose: 3.12 mg/kg/injection, schedule: Q01DX005 (ip), vehicle: Klucel (hydroxypropylcellulose) (HPC) 111 % of control and 117 % of control | dose: 6.25 mg/kg/injection, schedule: Q01DX005 (ip), vehicle: Klucel (hydroxypropylcellulose) (HPC) 120 % of control | dose: 12.5 mg/kg/injection, schedule: Q01DX005 (ip), vehicle: Klucel (hydroxypropylcellulose) (HPC) 111 % of control

CNC(=O)N(C)N=NCCCl
active: [14] 175 % of control | dose: 52.5 mg/kg/injection, schedule: Q01DX005 (ip), vehicle: saline with Tween-80 161 % of control | [15] 196 % of control | dose: 105.0 mg/kg/injection, schedule: Q01DX005 (ip), vehicle: saline with Tween-80 181 % of control | [16] 297 % of control | dose: 210.0 mg/kg/injection, schedule: Q01DX005 (ip), vehicle: saline with Tween-80 297 % of control
inactive: dose: 400.0 mg/kg/injection, schedule: Q01DX005 (ip), vehicle: saline with Tween-80 99 % of control

C=C(C(=O)OC)C1C=CC2OC(C)(C)OCC2O1 (configuration not stated)
inactive: [12] 113 % of control | dose: 120.0 mg/kg/injection, schedule: Q01DX005 (ip), vehicle: saline 106 % of control | [13] 109 % of control

CCN1C(=O)CSC1=S
inactive: dose: 6.25 mg/kg/injection, schedule: Q04DX002 (ip), vehicle: Klucel (hydroxypropylcellulose) (HPC) 112 % of control | dose: 12.5 mg/kg/injection, schedule: Q04DX002 (ip), vehicle: Klucel (hydroxypropylcellulose) (HPC) 110 % of control | dose: 25.0 mg/kg/injection, schedule: Q04DX002 (ip), vehicle: Klucel (hydroxypropylcellulose) (HPC) 105 % of control | dose: 50.0 mg/kg/injection, schedule: Q04DX002 (ip), vehicle: Klucel (hydroxypropylcellulose) (HPC) 109 % of control

O=C1c2ccccc2CCC12OC2c1ccc([N+](=O)[O-])cc1 (configuration not stated)
inactive: dose: 25.0 mg/kg/injection, schedule: Q01DX005 (ip), vehicle: saline with Tween-80 100 % of control | [14] 106 % of control | [15] 110 % of control | [16] 106 % of control

CCC1C(OC)=CC2(CC)CC1(OC)OC2=O (configuration not stated)
inactive: dose: 60.0 mg/kg/injection, schedule: Q01DX005 (ip), vehicle: saline with Tween-80 97 % of control | dose: 120.0 mg/kg/injection, schedule: Q01DX005 (ip), vehicle: saline with Tween-80 98 % of control | dose: 240.0 mg/kg/injection, schedule: Q01DX005 (ip), vehicle: saline with Tween-80 102 % of control
